Consider 1 compound from paper PMC3481155, “AhR activation underlies the CYP1A autoinduction by A-998679 in rats” (Frontiers in Genetics, 2012).

Data set [1] addresses T1, rat Cyp 3A2 (Rattus norvegicus, UniProt P05183).
T1 construct: purchased BD Gentest; host or cells: baculovirus infected insect cells
In words: Recombinant rat Cyp phenotype profiling, 3A2. It counts as in vitro ADME. As to conditions: 60 min. The protocol:
Identification of the drug metabolizing enzymes (DMEs) of A-998679 was studied in cDNA expressed recombinant enzymes prepared from baculovirus infected insect cells over-expressing rat Cyp isoforms (BD Gentest, Woburn, MA) as listed in Table 2. Incubations were conducted in duplicate using Supersomes. The incubation mixture contained 100 pmol/ml of enzymes, except for Cyp1a1 (200 pmol/ml), 0.1 or 0.21 μM of [^3H]A-998679 in 100 mM phosphate buffer (pH 7.4). Reactions were initiated with the addition of NADPH at a final concentration of 1 mM and incubated at 37°C for 60 min. At the end of the incubation period, the incubations were terminated by the addition of acetonitrile/ethanol (50/50, v/v) solution. Insect control samples lacking expressed enzyme were used as negative control. The degree of metabolism of A-998679 was assessed by percent of parent remaining using the radio-HPLC method described below.
Radiolabeled components from the above assays were profiled following separation by HPLC with on line radioflow detector. The system consisted of an Agilent 1100 Series quaternary pump and autosampler connected to a Packard 500TR flow scintillation detector. The data were processed using the Radiomatic™ Flo-one® software v3.65. The scintillant (Perkin Elmer FLO-SCINT™ III) flow was maintained at 3 ml/min. […]

The nature of data set [2]: 5-day oral rat study, pharmacokinetic analysis of plasma exposure. It counts as in vivo. The method, then: All animal experiments were conducted in accordance with the Guiding Principles in the Use of Animals in Toxicology (http://www.toxicology.org/ai/air/air6.asp) and were approved by Abbott's Institutional Animal Care and Use Committee (IACUC). Male Sprague-Dawley rats [Crl:CD®(SD)IGS BR], weighing ~250 g at study initiation were obtained from Charles River Laboratories, Inc. (Wilmington, MA). Rats were housed singly in ventilated, stainless steel, wire-bottom hanging cages and fed non-certified Rodent Chow (Harlan Labs, Madison, WI), and water ad libitum and acclimated for at least 5 days after arrival. Rats were randomly assigned to various treatment groups (3 rats/group) and were dosed once daily by oral gavage with vehicle (0.2% hydroxypropylmethylcellulose at a dose volume of 10 ml/kg) or with 30, 100, or 200 mg/kg of A-998679. All rats were fasted overnight after their last dose, weighed and sacrificed under isoflurane anesthesia. For histopathological evaluation, liver, heart, kidney, spleen, bone (sternum) with marrow, gastrointestinal tract (duodenum with pancreas, jejunum, ileum, cecum, and colon), thymus, and lung were fixed in formalin, routinely processed, and embedded in paraffin. Paraffin sections (4 μm) were stained with hematoxylin and eosin. Liver and small intestine (jejunum) were also flash frozen in liquid nitrogen and stored at −80°C until processing for gene expression profiling. Serum clinical chemistry parameters were quantified using an Aeroset Clinical Chemistry Analyzer (Abbott Laboratories, Abbott Park, IL) and included alanine amino transferase (ALT), aspartate amino transferase (AST), gamma glutamyltransferase (GGT), and alkaline phosphatase (ALP) activities.
Serial blood samples were obtained from a tail vein of each rat 0.5, 1.5, 3, 6, 9, 12, and 24 h after drug administration on the first and last day of dosing. Plasma was separated by centrifugation and stored frozen prior to analysis. A-998679 was separated from the plasma using protein precipitation with acetonitrile. A-998679 and the internal standard were separated from co-extracted contaminants on a 50 × 3 mm Betasil CN column (Thermosystem) with an acetonitrile: 10 mM ammonium acetate mobile phase (35:65, by volume) at a flow rate of 0.4 ml/min at ambient temperature. Concentrations of A-998679 in the plasma extracts were determined by HPLC-MS/MS (API2000; Applied Biosystems). Peak plasma concentrations (Cmax) and the time to peak plasma concentration (Tmax) were read directly from the plasma concentration data for each rat. A-998679 plasma concentration data were submitted to multi-exponential curve fitting using WinNonlin. The area under the plasma concentration-time curve from 0 to t hours (time of the last measurable plasma concentration) after dosing (AUC0-t) was calculated using the linear trapezoidal rule for the plasma concentration-time profiles. The residual area extrapolated to infinity, determined as the final measured plasma concentration (Ct) divided by the terminal elimination rate constant (β), was added to AUC0-t to produce the total area under the curve (AUC0-∞).

Where [3] appears, read: 30 and 100 mg/kg/day, data not shown.

T1 sequence (P05183 whole entry): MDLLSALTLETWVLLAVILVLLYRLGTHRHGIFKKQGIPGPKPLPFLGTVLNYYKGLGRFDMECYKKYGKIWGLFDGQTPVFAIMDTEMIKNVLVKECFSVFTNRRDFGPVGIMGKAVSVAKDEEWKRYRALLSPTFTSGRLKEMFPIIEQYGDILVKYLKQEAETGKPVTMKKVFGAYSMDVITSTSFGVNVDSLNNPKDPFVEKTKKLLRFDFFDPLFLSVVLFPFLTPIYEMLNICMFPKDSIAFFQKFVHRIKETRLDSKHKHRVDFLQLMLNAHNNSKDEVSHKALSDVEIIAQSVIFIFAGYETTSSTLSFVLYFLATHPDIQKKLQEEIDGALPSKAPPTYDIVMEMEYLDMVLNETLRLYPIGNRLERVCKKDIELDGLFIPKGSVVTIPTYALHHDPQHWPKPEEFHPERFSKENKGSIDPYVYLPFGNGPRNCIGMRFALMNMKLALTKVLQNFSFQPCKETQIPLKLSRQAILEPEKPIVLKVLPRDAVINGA

For orientation: Cmax means the peak of the concentration-time curve. For the compound `N#Cc1cccc(-c2noc(-c3cccnc3)n2)c1` [A-998679, 3-(5-pyridin-3-yl-1,2,4-oxadiazol-3-yl) benzonitrile], the “% parent remaining” value in data set [1] (recombinant rat Cyp 3A2, 0.10 μM) is 100%. For the same compound, the “% parent remaining” value in data set [1] (recombinant rat Cyp 3A2, 0.21 μM) is on record as 94.2%. In data set [2] (30 mg/kg/day, day 5 vs day 1), the “decline in Cmax after 5 days of dosing compared to the first day” value was determined as 88% and the “decrease in plasma AUC after 5 days of dosing” value is given as 95%. Further, in data set [2] (100 mg/kg/day, day 5 vs day 1), the “decline in Cmax after 5 days of dosing compared to the first day” value is given as 53% and the “decrease in plasma AUC after 5 days of dosing” value was found to be 80%. In data set [2] (200 mg/kg/day, day 5 vs day 1), the “change in AUC after 5 days of dosing” value is reported as “no change” and the “change in Cmax after 5 days of dosing” value is given as “no change”. Moreover, in data set [2] (setting [3]), the “change in Tmax after 5 days of dosing” value is “decrease” and the “change in t1/2 after 5 days of dosing” value is “decrease”. Further, the Cmax in data set [2] (male, Sprague-Dawley, plasma, 30 mg/kg) is about 5 µM.
